# Values of other authors in US20220347313A1, “Combination Anti-CD30 ADC, Anti-PD-1 and Chemotherapeutic for Treatment of Hematopoietic Cancers” (SEAGEN, INC., priority 2019, published 2022).
# Tested on: CD28, ICOS, CTLA-4 and BTLA
substance,measurement,value
nivolumab,binding specificity for PD-1 versus related CD28 family members,binds specifically to PD-1 and not to related members of the CD28 family
